Key:
Type in all cases: biochemical
[1] = molecular target: ND2 subunit of NADH:ubiquinone oxidoreductase (complex I) (Bos taurus, UniProt P03892)
[2] = molecular target: ND5 subunit of NADH:ubiquinone oxidoreductase (complex I) (Bos taurus, UniProt P03920); details: read-out: -6M urea
[3] = molecular target: ND1 subunit of NADH:ubiquinone oxidoreductase (complex I) (Bos taurus, UniProt P03887); test: photoaffinity labeling of SMP with [3H]BPA, BN-PAGE/dSDS-PAGE radioactivity

Measured: IC50

Chain of ND1 subunit of NADH:ubiquinone oxidoreductase (complex I) (P03887 whole entry, one chain of several): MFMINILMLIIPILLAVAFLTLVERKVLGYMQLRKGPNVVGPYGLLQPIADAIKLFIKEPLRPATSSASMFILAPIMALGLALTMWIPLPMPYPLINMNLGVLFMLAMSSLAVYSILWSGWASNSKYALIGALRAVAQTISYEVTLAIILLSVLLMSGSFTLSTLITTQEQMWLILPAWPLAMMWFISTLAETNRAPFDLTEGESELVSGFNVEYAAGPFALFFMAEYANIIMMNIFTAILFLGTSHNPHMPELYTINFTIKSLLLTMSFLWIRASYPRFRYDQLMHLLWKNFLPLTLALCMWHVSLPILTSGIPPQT
Chain of ND5 subunit of NADH:ubiquinone oxidoreductase (complex I) (P03920 whole entry, one chain of several): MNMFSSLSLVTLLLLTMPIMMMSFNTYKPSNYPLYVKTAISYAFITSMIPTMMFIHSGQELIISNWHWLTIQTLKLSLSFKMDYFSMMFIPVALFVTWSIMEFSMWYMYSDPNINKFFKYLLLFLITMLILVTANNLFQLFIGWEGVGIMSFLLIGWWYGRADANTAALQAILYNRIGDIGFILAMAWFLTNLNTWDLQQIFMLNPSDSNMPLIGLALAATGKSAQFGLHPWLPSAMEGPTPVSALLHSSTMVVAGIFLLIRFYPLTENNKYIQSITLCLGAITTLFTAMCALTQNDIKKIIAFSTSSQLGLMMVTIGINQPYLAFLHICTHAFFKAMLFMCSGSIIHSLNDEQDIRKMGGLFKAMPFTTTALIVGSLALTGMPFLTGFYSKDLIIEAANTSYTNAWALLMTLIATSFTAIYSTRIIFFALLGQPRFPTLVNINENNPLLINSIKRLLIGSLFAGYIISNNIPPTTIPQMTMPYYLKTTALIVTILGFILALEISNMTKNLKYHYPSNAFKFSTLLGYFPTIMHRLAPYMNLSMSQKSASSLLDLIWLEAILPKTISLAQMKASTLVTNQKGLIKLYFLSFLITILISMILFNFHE
Chain of ND2 subunit of NADH:ubiquinone oxidoreductase (complex I) (P03892 whole entry, one chain of several): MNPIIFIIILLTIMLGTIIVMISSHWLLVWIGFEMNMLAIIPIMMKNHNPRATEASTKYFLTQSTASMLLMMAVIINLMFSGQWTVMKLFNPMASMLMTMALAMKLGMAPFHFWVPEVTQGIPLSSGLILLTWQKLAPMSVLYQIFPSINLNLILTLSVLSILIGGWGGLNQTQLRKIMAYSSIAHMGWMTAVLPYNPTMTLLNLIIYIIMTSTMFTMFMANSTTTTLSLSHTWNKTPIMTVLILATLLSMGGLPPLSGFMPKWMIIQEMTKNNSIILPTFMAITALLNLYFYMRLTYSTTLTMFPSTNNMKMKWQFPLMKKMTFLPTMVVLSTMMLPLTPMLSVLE

benzophenone-asimicin [BPA]
~1 nM: all assays above
